# Test results as given in paper PMC5011342, “A high throughput drug screening assay to identify compounds that promote oligodendrocyte differentiation using acutely dissociated and purified oligodendrocyte precursor cells” (BMC Research Notes, 2016).
# Read-outs that look alike come from different tables or passages of the source.
# Key:
# expanded OPCs = experiment: cells; settings: for viability at 0.1 µM / viability at 1 µM / viability at 10 µM: Rattus norvegicus, 72 h
# Method: Having established a consistent assay for measuring OL differentiation in vitro, the next step was to utilize this assay to assess the ability of a wide array of compounds to promote OL differentiation. Prior to library screening, we first established the maximum non-toxic dose of each compound in the library. […] Therefore, we added each compound in the NIH clinical collection (NCC) library to OPCs at 10, 1, and 0.1 µM concentrations. Three days later, we assessed viability of the treated cells by measuring AlamarBlue fluorescence, a measure of cell viability (see “Methods” section). […] Appropriately, we established three sets of screening concentrations for library compounds: non-toxic compounds were tested at 10 and 2 µM, slightly toxic compounds (only toxic at 10 µM) were tested at 2 and 0.4 µM, and very toxic compounds were tested at 0.4 and 0.08 µM.
# OPCs were expanded in vitro by seeding into PDL-coated tissue culture flasks at 1000–2000 cells/cm^2 in differentiation media supplemented with 10 ng/ml PDGF-AA. Proliferating OPCs were fed every 2–3 days and supplemented with 2–3× concentration of PDGF as needed to prevent OPC differentiation. After 6–7 days of proliferation, OPCs were harvested by trypsinization, plated into PDL-coated 96-well Falcon plates and centrifuged at 200×g to facilitate cell attachment, survival, and even distribution of cells. Expanded OPCs were seeded in differentiation media at 10,000 cells/well and incubated for 2 h at 37 °C, 10 % CO2 prior to addition of compounds. The NCC library was diluted and added to cells at 10, 1, and 0.1 µM; each concentration was tested in quadruplicate. As a positive control for the induction of toxicity, 5 ng/ml tunicamycin was added to 8 wells in each plate. Three days later, a 1:10 dilution of alamarBlue® (AB) was added to each well and cells were incubated 4 h at 37 °C, 10 % CO2. AB fluorescence was measured using a PerkinElmer Victor II fluorescence microplate reader (PerkinElmer, Waltham, MA) with 560 nm excitation/590 nm emission filters. For library screening, the highest concentration of each compound was adjusted to a minimally toxic concentration based on this toxicity data. Compounds were additionally tested at a second concentration that was 1/5th of the top concentration. The final concentration of DMSO in each well was 0.1 %.
# [1] = tested on: acutely dissociated and purified rat OPCs; experiment: Acute OL differentiation assay (MBP expression/cell, immunofluorescent image quantification); format: cell-based; settings: sheet "All OLga data"; for activation at 2 µM / activation at 10 µM: Rattus norvegicus
# Method: In order to identify compounds with the potential to promote OL differentiation in vivo and thereby enhance remyelination, we first wanted to establish an in vitro assay system that would closely mimic conditions in vivo. To do this, we started by using OPCs acutely isolated from postnatal day 6–7 (P6–7) rat brains by O4 immunopanning. […] OPCs were plated directly onto a biological substrate (PDL/laminin) in 96-well view plates at moderate density to allow for sufficient room to expand processes during differentiation. We plated cells in serum-free medium lacking OPC mitogens (no PDGF or FGF) to allow a basal level of OL differentiation to commence, and as a positive control added thyroid hormone (T3, 40 ng/ml) to accelerate differentiation (Fig. 1, flow scheme).
# Fig. 1 Flow scheme of the acute OL differentiation assay. a Purified oligodendrocyte precursor cells (OPCs) were cultured from P7 rat cortex and plated into PDL/laminin pre-coated 96-well plates. b One hour later test compounds were added. c OPC cultures with compound were maintained in culture for an additional 4 days. d On the 5th day with compound, cells were fixed and immunostained with anti-MBP antibodies and DAPI. e Images were acquired with automated fluorescence microscopy and scored phenotypically for OL differentiation (see “Methods” section)
# To quantify the extent of OL differentiation occurring in treatment conditions, we measured the overall amount of MBP expression/cell (see “Methods” section). Figure 2a depicts the mask created over MBP staining under which the MBP expression was quantified. […]
# All animal work was carried out in strict accordance with the recommendations in the Guide for the Care and Use of Laboratory Animals of the National Institutes of Health. The protocol was approved by the Institutional Use and Care and Use Committee at the Molecular Medicine Research Institute (Sunnyvale, CA). Animals used for OPC isolation in these studies were euthanized by decapitation. OPCs from brains of P6-P7 Sprague–Dawley rat pups (Charles River, Wilmington, MA, USA) were enriched by immunopanning as previously described (Dugas et al. 2006). Briefly, single cell suspensions were obtained from papain-digested neonatal brains and depleted of mature glial cells by successive panning with RAN-2- and GalC-coated plates, followed by enrichment for OPCs using O4-coated plates. OPCs were plated in differentiation media (DMEM, 100 U/ml Penicillin/100 µg/ml streptomycin, 2 mM L-glutamine, 1 mM Na pyruvate, 5 µg/ml insulin, 5 µg/ml N-acetyl-L-cysteine, 1× trace elements B,10 ng/ml d-Biotin, 100 µg/ml BSA, 100 µg/ml apo-transferrin, 16 µg/ml putrescine, 60 ng/ml progesterone, 40 ng/ml sodium selenite 5 ng/ml forskolin, 10 ng/ml CNTF, 1 ng/ml NT-3).
# Acutely enriched OPCs were plated in differentiation media at 5000 cells/well into PDL/laminin coated 96-well view plates and centrifuged at 200×g to facilitate cell attachment, survival, and even distribution of OPCs. OPCs were pre-incubated for 1–2 h at 37 °C in 10 % CO2, followed by the addition of test compounds in quadruplicate. Controls were added in eight replicate wells, negative control = 0.1 % DMSO; positive control = 40 ng/ml T3. The day of OPC plating was considered DIV0. On DIV4, cells were fixed, immunostained for myelin basic protein (MBP) expression, imaged and quantified as described below.
# [2] = alamarBlue viability, NCC library compound at 0.1 µM, sheet "All Tox data"
# [3] = alamarBlue viability, NCC library compound at 1 µM, sheet "All Tox data"
# [4] = alamarBlue viability, NCC library compound at 10 µM, sheet "All Tox data"
# [5] = read-out: 0.1 µM (% DMSO), alamarBlue viability, NCC library compound at 0.1 µM, sheet "All Tox data"
# [6] = read-out: 1 µM (% DMSO), alamarBlue viability, NCC library compound at 1 µM, sheet "All Tox data"
# [7] = read-out: 10 µM (% DMSO), alamarBlue viability, NCC library compound at 10 µM, sheet "All Tox data"
# [8] = 2 uM test compound, relative to quetiapine, read-out: OL differentiation, 2 uM (% Quet)
# [9] = 10 uM test compound, relative to quetiapine, read-out: OL differentiation, 10 uM (% Quet)
# [10] = test compound at 2 uM, NCC library screen, relative to quetiapine, read-out: 2 uM (% Quet)
# [11] = test compound at 10 uM, NCC library screen, relative to quetiapine, read-out: 10 uM (% Quet)
# [12] = alamarBlue viability of expanded OPCs, compound at 0.1 µM, relative to DMSO control
# [13] = alamarBlue viability of expanded OPCs, compound at 1 µM, relative to DMSO control
# [14] = alamarBlue viability of expanded OPCs, compound at 10 µM, relative to DMSO control
smiles,measurement,setting,value
CCCCCCCCCOc1ccc2[nH]cc(CCN)c2c1 [5-Nonyloxytryptamine],0.1 µM (% DMSO),expanded OPCs; [2],59.8 % DMSO
same,1 µM (% DMSO),expanded OPCs; [3],9.3 % DMSO
same,10 µM (% DMSO),expanded OPCs; [4],8.5 % DMSO
same,0.08 uM (% Quet),"[1]; test compound at 0.08 uM, NCC library screen, relative to quetiapine",-24.6 % Quet
same,0.4 uM (% Quet),"[1]; test compound at 0.4 uM, NCC library screen, relative to quetiapine",-339.9 % Quet
Fc1cncnc1 [5-fluoropyrimidine],viability at 0.1 µM,expanded OPCs; [5],89.9%
same,viability at 1 µM,expanded OPCs; [6],85.6%
same,viability at 10 µM,expanded OPCs; [7],80.4%
same,activation at 2 µM,[1]; [8],-16.3%
same,activation at 10 µM,[1]; [9],-9.2%
Nc1ccc2cn[nH]c2c1 [6-Aminoindazole],0.1 µM (% DMSO),expanded OPCs; [2],85.3 % DMSO
same,1 µM (% DMSO),expanded OPCs; [3],87.5 % DMSO
same,10 µM (% DMSO),expanded OPCs; [4],73.6 % DMSO
same,2 uM (% Quet),"[1]; test compound at 2 uM, NCC library screen, relative to quetiapine",-23.3 % Quet
same,10 uM (% Quet),"[1]; test compound at 10 uM, NCC library screen, relative to quetiapine",-40.9 % Quet
O=[N+]([O-])c1cccc2cn[nH]c12 [7-Nitroindazole],viability at 0.1 µM,expanded OPCs; [5],84.2%
same,viability at 1 µM,expanded OPCs; [6],88.9%
same,viability at 10 µM,expanded OPCs; [7],89.1%
same,activation at 2 µM,[1]; [10],-7.1%
same,activation at 10 µM,[1]; [11],5.7%
CCCCC/C=C\C/C=C\C/C=C\C/C=C\CCCC(=O)Nc1ccc(O)cc1 [AM 404],0.1 µM (% DMSO),"expanded OPCs; alamarBlue viability of expanded OPCs, compound at 0.1 µM, sheet All Tox data",87.9 % DMSO
same,1 µM (% DMSO),"expanded OPCs; alamarBlue viability of expanded OPCs, compound at 1 µM, sheet All Tox data",33.1 % DMSO
same,10 µM (% DMSO),"expanded OPCs; alamarBlue viability of expanded OPCs, compound at 10 µM, sheet All Tox data",11.4 % DMSO
same,"OL differentiation, 0.08 uM (% Quet)","[1]; 0.08 uM test compound, relative to quetiapine",-17.8 % Quet
same,"OL differentiation, 0.4 uM (% Quet)","[1]; 0.4 uM test compound, relative to quetiapine",-184.2 % Quet
C[C@H]1O[C@H](O[C@H]2[C@H](O)[C@@H](O)[C@@H](O[C@H]3[C@H](O)[C@@H](O)C(O)O[C@@H]3CO)O[C@@H]2CO)[C@H](O)[C@@H](O)[C@@H]1N[C@H]1C=C(CO)[C@@H](O)[C@H](O)[C@H]1O (stereo partly shown) [Acarbose],viability at 0.1 µM,"expanded OPCs; read-out: 0.1 µM (% DMSO), alamarBlue viability of expanded OPCs, compound at 0.1 µM, sheet All Tox data",88.8%
same,viability at 1 µM,"expanded OPCs; read-out: 1 µM (% DMSO), alamarBlue viability of expanded OPCs, compound at 1 µM, sheet All Tox data",92%
same,viability at 10 µM,"expanded OPCs; read-out: 10 µM (% DMSO), alamarBlue viability of expanded OPCs, compound at 10 µM, sheet All Tox data",93.2%
same,activation at 2 µM,[1]; [8],17.5%
same,activation at 10 µM,[1]; [9],-6.6%
CCCC(=O)Nc1ccc(OCC(O)CNC(C)C)c(C(C)=O)c1 (stereo not shown) [Acebutolol],0.1 µM (% DMSO),expanded OPCs; [12],94.3 % DMSO
same,1 µM (% DMSO),expanded OPCs; [13],111.2 % DMSO
same,10 µM (% DMSO),expanded OPCs; [14],112.7 % DMSO
same,activation at 2 µM,"[1]; test compound at 2 uM, MBP expression relative to quetiapine, NCC library screen, read-out: 2 uM (% Quet)",7.8%
same,activation at 10 µM,"[1]; test compound at 10 uM, MBP expression relative to quetiapine, NCC library screen, read-out: 10 uM (% Quet)",-5.4%
CC(=O)Nc1nnc(S(N)(=O)=O)s1 [Acetazolamide],0.1 µM (% DMSO),expanded OPCs; [12],89.2 % DMSO
same,1 µM (% DMSO),expanded OPCs; [13],90.6 % DMSO
same,10 µM (% DMSO),expanded OPCs; [14],87.5 % DMSO
same,activation at 2 µM,[1]; [10],-8.7%
same,activation at 10 µM,[1]; [11],-43.8%
